{
  "source": "patent US11300640B2",
  "about": "“Protein reporters for ultrasensitive detection methods” (The Trustees of the University of Pennsylvania, priority 2017, dated 2022)",
  "molecules": {"B1": {"name": "ribose binding protein (protein)", "chain": "KDTIALVVSTLNNPFFVSLKDGAQKEADKLGYNLVVLDSQNNPAKELANVQDLTVRGTKILLINPTDSDAVGNAVKMANQANIPVITLDRQATKGEVVSHIASDNVLGGKIAGDYIAKKAGEGAKVIELQGIAGTSAARERGEGFQQAVAAHKFNVLASQPADFDRIKGLNVMQNLLTAHPDVQAVFAQNDEMALGALRALQTAGKSDVMVVGFDGTPDGEKAVNDGKLAATIAQLPDQIGAKGVETADKVLKGEKVQAKYPVDLKLVVKQ", "modifications": "Native amino acid sequence of RBP for expression in E. coli"}, "B2": {"name": "RBP(L19A): ribose binding protein having a L19A mutation (SEQ ID NO: 44) (protein)", "chain": "B1 chain with L19A", "modifications": "Amino acid sequence of RBP(L19A)"}, "B3": {"name": "I263A: bla having an I263A mutation (SEQ ID NO: 5) (protein)", "chain": "MSIQHFRVALIPFFAAFCLPVFAHPETLVKVKDAEDQLGARVGYIELDLNSGKILESFRPEERFPMMSTFKVLLCGAVLSRVDAGQEQLGRRIHYSQNDLVEYSPVTEKHLTDGMTVRELCSAAITMSDNTAANLLLTTIGGPKELTAFLHNMGDHVTRLDRWEPELNEAIPNDERDTTMPAAMATTLRKLLTGELLTLASRQQLIDWMEADKVAGPLLRSALPAGWFIADKSGAGERGSRGIIAALGPDGKPSRIVVAYTTGSQATMDERNRQIAEIGASLIKHW", "modifications": "TEM-1 beta-lactamase with a I263A mutation (mutation at residue 259)"}, "B4": {"name": "I279N: bla having an I279N mutation (SEQ ID NO: 6) (protein)", "chain": "B3 chain with A259I, I275N", "modifications": "TEM-1 beta-lactamase with a I279N mutation (mutation at residue 275)"}},
  "key": {"MBP": {"molecular_target": "MBP (Escherichia coli, UniProt P0AEX9)", "details": "binding to MBP; cited from earlier work"}, "[1]": {"assay": "129Xe hyper-CEST NMR of GFP-RBP mutants", "description": "To evaluate whether GFP-RBP(L19A) reports any Xe hyper-CEST contrast, a hyper-CEST z-spectrum was acquired from 10 μM GFP-RBP(L19A) in the presence and absence of ribose. Multiple selective Dsnob-shaped saturation pulses were scanned over the chemical shift range of 93-358 ppm in 5 ppm steps, and the ^129Xe(aq) signal was measured as a function of saturation pulse offset (FIG. 55).\nTo assess the detection sensitivity of GFP-RBP(L19A), time-dependent saturation transfer experiments were performed by measuring Xe(aq) polarization as a function of saturation time. Shaped saturation pulses were applied at the chemical shift of Xe@RBP(L19A)closed, and the residual aqueous ^129Xe signal after saturation transfer was measured as an on-resonance CEST response. Saturation frequencies of Dsnob-shaped pulses were positioned at +42.5 and −42.5 ppm, referenced to the Xe(aq) peak, for on- and off-resonance, respectively. The pulse length was 1.727 ms, and the field strength was 170 μT. The normalized difference between on- and off-resonance signals was represented by the saturation contrast."}, "[2]": {"design": "Ka of Xe binding / Ka for Xe binding to MBP+βCD: unit not given here", "details": "cited from earlier work; for xenon association constant: room temperature"}, "[3]": {"assay": "MBP fluorescence quenching by maltose", "assay_type": "binding", "details": "4 μM MBP, 400 μM maltose, 20 mM HEPES pH 7.4, excitation 280 nm", "experimental": "Fluorescence spectra were obtained on a Tecan Infinite M1000 PRO microplate reader using black 96 well flat-bottom microplates (Grenier Bio-One). […] Excitation was at 280 nm and emission was scanned from 300 to 400 nm in 1 nm increments. All fluorescence assays were performed in triplicate and averaged. Fluorescence spectra were background corrected by subtracting the fluorescence spectrum of the well solution in the absence of protein."}, "[4]": {"assay": "129Xe hyper-CEST NMR of purified MBP and MBP mutants", "details": "for T1off / T1on / saturation contrast: 100 nM WT MBP", "text": "Briefly, HP ^129Xe was generated using the spin-exchange optical pumping (SEOP) method with a home-built ^129Xe polarizer based on the IGI.Xe.2000 commercial model by GE. A Shark 65 W tunable ultra-narrow band diode laser (OptiGrate) set to 795 nm was used for optical pumping of Rb vapor. A gas mixture of 88% helium, 10% nitrogen, and 2% natural abundance xenon (Linde Group, N.J.) was used as the hyperpolarizer input. ^129Xe hyperpolarization level was roughly 10-15%. For each data point in the hyper-CEST z-spectra, HP ^129Xe was bubbled into the NMR tube through capillaries for 20 seconds, followed by a 3-second delay to allow bubbles to collapse. A Dsnob saturation pulse with 690 Hz bandwidth was used. Pulse length tpulse=3.80 ms, field strength B1, max=77 μT, number of pulses npulse=400, saturation time Tsat=1.52 s. NMR experiments were performed using a Bruker BioDRX 500 MHz NMR spectrometer and 10-mm PABBO probe, at 300 K. A 900 hard pulse of this probe has a pulse length of 22 μs. Unless otherwise noted, the protein concentration used was 80 μM, with 0.1% (v/v) Pluronic L81 (Aldrich) added to mitigate foaming.\nBriefly, hyperpolarized (hp)^129Xe was generated using the spin-exchange optical pumping (SEOP) method with a home-built ^129Xe polarizer based on the IGI.Xe.2000 commercial model by GE. A Shark 65 W tunable ultra-narrow band diode laser (OptiGrate) set to 795 nm was used for optical pumping of Rb vapor. A gas mixture of 88% helium, 10% nitrogen, and 2% natural abundance xenon (Linde Group, N.J.) was used as the hyperpolarizer input. ^129Xe hyperpolarization level was roughly 10-15%. For each data point in the hyper-CEST z-spectra, hp ^129Xe was bubbled into the NMR tube through capillaries for 20 s, followed by a 3-s delay to allow bubbles to collapse. A d-SNOB saturation pulse with 690 Hz bandwidth was used. Pulse length, tpulse=3.80 ms; field strength B1,max=77 μT; number of pulses, npulse=400; saturation time, Tsat=1.52 s. NMR experiments were performed using a Bruker BioDRX 500 MHz NMR spectrometer and 10-mm PABBO probe, at 300 K. A 900 hard pulse of this probe has a pulse length of 22 μs. Unless otherwise noted, the protein concentration used was 80 μM, with 0.1% (v/v) Pluronic L81 (Aldrich) added to mitigate foaming. […] Pulse length, Tpulse=1.0496 ms; field strength, B1max=279 μT. Both on-resonance and off-resonance data were fitted with first-order exponential decay curves."}, "BL21(DE3) E. coli": {"system": "BL21(DE3) E. coli", "assay": "Hyper-CEST of MBP expressed in E. coli (pET-MBP plasmid)", "assay_type": "cell-based", "details": "for Contrast, corrected: contrast of non-induced E. coli subtracted; for T1off / T1on: OD600=9; for saturation contrast: OD600=9, +95/−95 ppm", "text": "All cell solutions were normalized to OD600=9. Saturation frequencies of Dsnob-shaped pulses were positioned at +95 ppm and −95 ppm, referenced to the Xe(aq) peak, for on- and off-resonance, respectively. Pulse length, τpulse=1.0496 ms; field strength, B1,max=279 μT. Both on-resonance and off-resonance data were fitted with first-order exponential decay curves."}, "[5]": {"details": "RBP from E. coli; read-out: Kd for ribose; cited from earlier work"}, "[6]": {"assay": "bla hydrolase activity assay pre- and post-CEST", "assay_type": "biochemical", "details": "5 nM enzyme, 450 μM nitrocefin, 50 mM Tris pH 7.4, 5% DMSO", "description": "The hydrolysis of nitrocefin was monitored at A482 using an Infinite M1000 Pro plate reader (Tecan).\nProduct formation was monitored at A482 using an Infinite M1000 Pro plate reader (Tecan). The assays were performed in triplicate for pre- and post-hyper CEST bla(I263A) and bla(I279N) samples."}, "[7]": {"details": "induced E. coli with maltose, 6±4 μM MBP"}, "[8]": {"details": "induced E. coli without maltose, 15±6 μM MBP"}},
  "note": "Numbering of substitutions follows the chain as printed. Names and notes keep the numbering of the source. “Also recorded” adds a separate entry of the source.",
  "data": [
    {"molecule": "OC[C@H]1O[C@@H]2O[C@H]3[C@H](O)[C@@H](O)[C@@H](O[C@H]4[C@H](O)[C@@H](O)[C@@H](O[C@H]5[C@H](O)[C@@H](O)[C@@H](O[C@H]6[C@H](O)[C@@H](O)[C@@H](O[C@H]7[C@H](O)[C@@H](O)[C@@H](O[C@H]8[C@H](O)[C@@H](O)[C@@H](O[C@H]1[C@H](O)[C@H]2O)O[C@@H]8CO)O[C@@H]7CO)O[C@@H]6CO)O[C@@H]5CO)O[C@@H]4CO)O[C@@H]3CO", "note": "[βCD, β-cyclodextrin]", "values": [
      {"measurement": "Kd", "setting": "MBP", "value": 1800, "unit": "nM"}
    ]},
    {"molecule": "GFP-RBP(L19A): fusion of GFP and ribose binding protein with L19A mutation (SEQ ID NO: 46)", "values": [
      {"measurement": "saturation contrast (maximum)", "setting": "[1]; 100 nM GFP-RBP(L19A), pulses at +42.5/−42.5 ppm", "value": "0.30±0.01"},
      {"measurement": "saturation response in z-spectrum", "setting": "[1]; 10 μM protein, unliganded (no ribose)", "value": "only a single saturation response"}
    ]},
    {"molecule": "hemoglobin [reference compound]", "values": [
      {"measurement": "xenon association constant", "setting": "[2]", "value": "around 200 M^−1"}
    ]},
    {"molecule": "maltose binding protein [MBP]", "values": [
      {"measurement": "magnitude of fluorescence quenching by maltose", "setting": "[3]", "value": 22, "unit": "%"},
      {"measurement": "T1off", "setting": "[4]; 0 μM maltose", "value": "44 ± 3", "unit": "s"},
      {"measurement": "T1on", "setting": "[4]; 0 μM maltose", "value": "41 ± 2", "unit": "s"},
      {"measurement": "saturation contrast", "setting": "[4]; 0 μM maltose, pH 7.2 PBS, 300 K", "value": "0.022±0.004"},
      {"measurement": "T1off", "setting": "[4]; 0.1 μM maltose", "value": "41 ± 3", "unit": "s"},
      {"measurement": "T1on", "setting": "[4]; 0.1 μM maltose", "value": "34 ± 1", "unit": "s"},
      {"measurement": "saturation contrast", "setting": "[4]; 0.1 μM maltose", "value": "0.050±0.007"},
      {"measurement": "T1off", "setting": "[4]; 0.3 μM maltose", "value": "43 ± 1", "unit": "s"},
      {"measurement": "T1on", "setting": "[4]; 0.3 μM maltose", "value": "35 ± 1", "unit": "s"},
      {"measurement": "saturation contrast", "setting": "[4]; 0.3 μM maltose", "value": "0.05±0.01"},
      {"measurement": "T1off", "setting": "[4]; 0.5 μM maltose", "value": "39 ± 1", "unit": "s"},
      {"measurement": "T1on", "setting": "[4]; 0.5 μM maltose", "value": "26.3 ± 0.9", "unit": "s"},
      {"measurement": "saturation contrast", "setting": "[4]; 0.5 μM maltose", "value": "0.11±0.01"},
      {"measurement": "T1off", "setting": "[4]; 1 μM maltose", "value": "50 ± 1", "unit": "s"},
      {"measurement": "T1on", "setting": "[4]; 1 μM maltose", "value": "32.7 ± 0.7", "unit": "s"},
      {"measurement": "saturation contrast", "setting": "[4]; 1 μM maltose", "value": "0.118±0.007"},
      {"measurement": "T1off", "setting": "[4]; 3 μM maltose", "value": "46 ± 2", "unit": "s"},
      {"measurement": "T1on", "setting": "[4]; 3 μM maltose", "value": "26 ± 1", "unit": "s"},
      {"measurement": "saturation contrast", "setting": "[4]; 3 μM maltose", "value": "0.161±0.004"},
      {"measurement": "T1off", "setting": "[4]; 1 mM maltose", "value": "55 ± 3", "unit": "s"},
      {"measurement": "T1on", "setting": "[4]; 1 mM maltose", "value": "21.8 ± 0.6", "unit": "s"},
      {"measurement": "saturation contrast", "setting": "[4]; 1 mM maltose", "value": "0.26±0.01"},
      {"measurement": "T1on", "setting": "[4]; 1 mM maltose, listed as WT MBP", "value": "21.8 ± 0.7", "unit": "s"},
      {"measurement": "lowest maltose concentration readily detected (detection threshold)", "setting": "[4]; 100 nM protein sensor", "value": 100, "unit": "nM"},
      {"measurement": "downfield saturation response in z-spectrum", "setting": "[4]; 80 μM MBP, 1 mM β-cyclodextrin", "value": "no downfield Xe@MBP peak; also recorded: no downfield saturation response"},
      {"measurement": "saturation response in z-spectrum", "setting": "[4]; 80 μM protein, without maltose", "value": "only a single saturation response"},
      {"measurement": "Ka for Xe binding to MBP+maltose", "setting": "[2]; 1H-15N HSQC NMR", "value": "too low to measure"},
      {"measurement": "Ka for Xe binding to MBP+βCD", "setting": "[2]; 1H-15N HSQC NMR", "value": "20±10"},
      {"measurement": "Ka of Xe binding", "setting": "[2]; MBP in the open conformation, HSQC NMR", "value": "20±10"},
      {"measurement": "Xe binding affinity (association constant)", "setting": "[2]; experimentally determined literature values", "value": "20 ± 10", "unit": "M⁻¹"},
      {"measurement": "Contrast per μM MBP", "setting": "BL21(DE3) E. coli; E. coli with maltose", "value": "0.05 ± 0.03"},
      {"measurement": "Contrast, corrected", "setting": "BL21(DE3) E. coli; E. coli with maltose", "value": 0.28},
      {"measurement": "Contrast per μM MBP", "setting": "BL21(DE3) E. coli; E. coli without maltose", "value": "0.013 ± 0.005"},
      {"measurement": "Contrast, corrected", "setting": "BL21(DE3) E. coli; E. coli without maltose", "value": 0.19},
      {"measurement": "increase in observed CEST contrast generated by maltose", "setting": "BL21(DE3) E. coli; background subtracted, normalized to MBP concentration", "value": 3.7, "unit": "fold"},
      {"measurement": "T1off", "setting": "BL21(DE3) E. coli; [7]", "value": "16.7 ± 0.6", "unit": "s"},
      {"measurement": "T1on", "setting": "BL21(DE3) E. coli; [7]", "value": "4.94 ± 0.10", "unit": "s"},
      {"measurement": "saturation contrast", "setting": "BL21(DE3) E. coli; [7]", "value": "0.60±0.02"},
      {"measurement": "T1off", "setting": "BL21(DE3) E. coli; [8]", "value": "9.3 ± 0.3", "unit": "s"},
      {"measurement": "T1on", "setting": "BL21(DE3) E. coli; [8]", "value": "5.35 ± 0.17", "unit": "s"},
      {"measurement": "saturation contrast", "setting": "BL21(DE3) E. coli; [8]", "value": "0.40±0.06"}
    ]},
    {"molecule": "myoglobin [reference compound]", "values": [
      {"measurement": "xenon association constant", "setting": "[2]", "value": "around 200 M^−1"}
    ]},
    {"molecule": "B1", "values": [
      {"measurement": "Kd", "setting": "[5]", "value": 130, "unit": "nM"}
    ]},
    {"molecule": "B2", "values": [
      {"measurement": "xenon binding affinity, closed conformation", "setting": "[2]; 1H-15N HSQC NMR", "value": "40 ± 20", "unit": "M⁻¹"},
      {"measurement": "xenon binding affinity, open conformation", "setting": "[2]; 1H-15N HSQC NMR", "value": "70 ± 30", "unit": "M⁻¹"}
    ]},
    {"molecule": "B3", "values": [
      {"measurement": "Initial Rate, after CEST", "setting": "[6]; listed as bla(I263A)", "value": "0.153±0.009", "unit": "A482 min^−1"},
      {"measurement": "Initial Rate, before CEST", "setting": "[6]; listed as bla(I263A)", "value": "0.142±0.002", "unit": "A482 min^−1"}
    ]},
    {"molecule": "B4", "values": [
      {"measurement": "Initial Rate, after CEST", "setting": "[6]", "value": "0.047 ± 0.002", "unit": "A482 min^−1"},
      {"measurement": "Initial Rate, before CEST", "setting": "[6]", "value": "0.044 ± 0.003", "unit": "A482 min^−1"}
    ]}
  ]
}
